# Read-outs that look alike come from different tables or passages of the source. Marks after values point to notes of the source that are not given here.
# Experiments:
# [1] = values marked * (Laut Literaturangabe); cited from earlier work
# [2] = Osmolality of contrast agent solutions; format: physicochemical; details: for Osmolalität von 300 mg I/ml Lösungen wäßrige Lösung: aqueous solution; for Osmolalität von 300 mg I/ml Lösungen pharmazeutisch formul. Lösung: pharmaceutically formulated solution
# männl. Maus 16-20 g = details: male mouse 16-20 g, approximate range
# männl. Ratte 80-100 g = details: male rat 80-100 g, approximate range
# [3] = Viscosity of contrast agent solutions at 37 °C; format: physicochemical; details: for Viskosität von 300 mg I/ml bei 37 °C: pharmaceutically formulated solution, determined in applicant's laboratory
Structure (SMILES),Osmolalität von 300 mg I/ml Lösungen wäßrige Lösung [2] [mOsm],Osmolalität von 300 mg I/ml Lösungen pharmazeutisch formul. Lösung [2] [mOsm],Näherungsbereich i.v. LD₅₀ männl. Maus 16-20 g (männl. Maus 16-20 g),Näherungsbereich i.v. LD₅₀ männl. Ratte 80-100 g (männl. Ratte 80-100 g),Viskosität von 300 mg I/ml bei 37 °C [3],other results
C[C@H](O)C(=O)Nc1c(I)c(C(=O)NC(CO)CO)c(I)c(C(=O)NC(CO)CO)c1I [Iopamidol],671,704,16-18 g I/kg,12-13 g I/kg,–,"Viskosität von 300 mg I/ml bei 37 °C [1]: 4,7* cps"
"CC(=O)N(CC(O)CO)c1c(I)c(C(=O)NCCO)c(I)c(C(=O)NCC(O)CO)c1I (centres unmarked) [Ioxilan, reference compound]",560,588,16-18 g I/kg,12-13 g I/kg,"4,7 cps",–
"CC(=O)N(CC(O)CO)c1c(I)c(C(N)=O)c(I)c(C(=O)NCC(O)CO)c1I (centres unmarked) [Verbindung 19, 5-{N-(2,3-Dihydroxypropyl)acetamido}-2,4,6-triiod-3-{N-(2,3-dihydroxypropyl)}carbamoyl-Benzamid]",365,390,14-16 g I/kg,13-14 g I/kg,"4,1 cps","Osmolalität ([2]; injection solution 300 mg I/ml, CaNa2-EDTA 10 mg, Tris 121 mg per 100 ml, pH 7,0, autoclaved): 399 mOsm/kg; Osmolalität ([2]; injection solution 350 mg I/ml, CaNa2-EDTA 10 mg, Tris 121 mg per 100 ml, pH 7,0, autoclaved): 473 mOsm/kg; Osmolalität ([2]; injection solution 400 mg I/ml, CaNa2-EDTA 10 mg, Tris 121 mg per 100 ml, pH 7,0, autoclaved): 510 mOsm/kg; Viskosität bei 37 °C ([3]; injection solution 300 mg I/ml, CaNa2-EDTA 10 mg, Tris 121 mg per 100 ml, pH 7,0, 37 °C): 4,1 Centipoise; Viskosität bei 37 °C ([3]; injection solution 350 mg I/ml, CaNa2-EDTA 10 mg, Tris 121 mg per 100 ml, pH 7,0, 37 °C): 6,6 Centipoise; Viskosität bei 37 °C ([3]; injection solution 400 mg I/ml, CaNa2-EDTA 10 mg, Tris 121 mg per 100 ml, pH 7,0, 37 °C): 10,6 Centipoise"
"CN(C(=O)CO)c1c(I)c(C(N)=O)c(I)c(C(=O)NC(CO)C(O)CO)c1I (stereo not drawn) [Verbindung 41, 5-{N-(Methyl)-2-hydroxyacetamido}-2,4,6-triiod-3-{N-(1,3,4-trihydroxy-threo-but-2-yl)}-carbamoyl-Benzamid]",314,322,"16-17,5 g I/kg",15-17 g I/kg,"3,5 cps",–
CC(=O)N(CC(O)CO)c1c(I)c(C(=O)NCC(O)CO)c(I)c(C(=O)NCC(O)CO)c1I (centres unmarked) [Iohexol],–,–,16-17 g I/kg,"11,5-12,5 g I/kg",–,–
"CC(=O)N(CCO)c1c(I)c(C(N)=O)c(I)c(C(=O)NC(CO)C(O)CO)c1I (stereo not drawn) [Verbindung 11, 5-{N-(2-Hydroxyethylacetamido)}-2,4,6-triiod-3-{N-(1,3,4-trihydroxy-threo-but-2-yl)}carbamoyl-Benzamid]",300,326,"15,5-16,5 g I/kg","15,5-17,5 g I/kg","4,2 cps","Osmolalität ([2]; injection solution 300 mg I/ml, CaNa2-EDTA 56 mg, Trinatriumcitrat 77 mg per 100 ml, pH 5,0 bis 6,0, autoclaved): 301 mOsm/kg; Osmolalität ([2]; injection solution 350 mg I/ml, CaNa2-EDTA 56 mg, Trinatriumcitrat 77 mg per 100 ml, pH 5,0 bis 6,0, autoclaved): 337 mOsm/kg; Osmolalität ([2]; injection solution 400 mg I/ml, CaNa2-EDTA 56 mg, Trinatriumcitrat 77 mg per 100 ml, pH 5,0 bis 6,0, autoclaved): 370 mOsm/kg; Viskosität bei 37 °C ([3]; injection solution 300 mg I/ml, CaNa2-EDTA 56 mg, Trinatriumcitrat 77 mg per 100 ml, pH 5,0 bis 6,0, 37 °C): 4,2 Centipoise; Viskosität bei 37 °C ([3]; injection solution 350 mg I/ml, CaNa2-EDTA 56 mg, Trinatriumcitrat 77 mg per 100 ml, pH 5,0 bis 6,0, 37 °C): 6,6 Centipoise; Viskosität bei 37 °C ([3]; injection solution 400 mg I/ml, CaNa2-EDTA 56 mg, Trinatriumcitrat 77 mg per 100 ml, pH 5,0 bis 6,0, 37 °C): 13,1 Centipoise"
COCC(=O)Nc1c(I)c(C(=O)NCC(O)CO)c(I)c(C(=O)N(C)CC(O)CO)c1I (centres unmarked) [Iopromid],607,630,14-16 g I/kg,11-12 g I/kg,–,"Viskosität von 300 mg I/ml bei 37 °C [1]: 4,6* cps"

# Reference: EP0406992A2, “New non-ionic carboxamide contrast agent” (SCHERING AKTIENGESELLSCHAFT, priority 1989, dated 1991)
